In patent publication US7678884B2, “Biologically active peptide and agent containing the same” (Seikagaku Corporation, priority 2003, dated 2010):
Ends that are not written are not given here.

Experiments:
[1] = system: Human-derived Periodontal Ligament Cells (PDL Cells); experiment: Cell growth of PDL cells (cell number by Coulter counter); assay type: cell-based; conditions: peptide added at various concentrations to DMEM containing 2% FBS; counted on Days 4 and 6; versus control medium (FIG. 1, FIG. 2)
Text: PDL cells were isolated from a healthy premolar carefully extracted from a patient who visited a hospital to extract teeth for orthodontic treatment so that periodontal ligament should not be damaged as far as possible, and cultured. The extracted tooth was washed with sterilized physiological saline and phosphate-buffered saline (PBS, Nissui), and then periodontal ligament existing in ⅓ of the tooth root at the center was scraped off with a sharp knife. The pieces of periodontal ligament were transferred to a plastic plate and minced into small fragments using a round-blade knife. Tissue fragments were left standing in a plate having a diameter of 35 mm (FALCON) and cultured in Dulbecco's modified Eagle medium (DMEM, Nissui) containing antibiotics (100 U/ml of penicillin G, 100 μg/ml of streptomycin and 250 μg/ml of gentamicin) and 10% fetal bovine serum (FBS, EQUITECH-BIO) at 37° C. under 5% CO2. […]
The PDL cells prepared in (1) were inoculated on a 24-well culture plate (FALCON) at a ratio of 5×10^3 cells/well. […] On Days 4 and 6, the cells were separated and dispersed by using PBS containing 0.08% trypsin and 0.04% ethylenediaminetetraacetic acid (EDTA), and cell number was counted by using a Coulter counter (COULTER Z1, Coulter Electronics). […]

PDL cells [2] = experiment: Calcification product forming ability of PDL cells (Dahl's calcium staining, alizarin red S); assay type: cell-based, human; conditions: peptide at various concentrations, 10 mM sodium β-glycerophosphate, three weeks after confluent state
Experimental: The following experiment was performed to examine effect of the peptide on calcification product forming ability of cells.
To assess calcification ability of cells, Dahl's calcium staining was performed. The PDL cells were inoculated on a 24-well culture plate at a ratio of 5×10^3 cells/well, and cultured in 2S-containing DMEM added with the peptide (a) or (c) at various concentrations and adjusted by addition of 10 mM sodium β-glycerophosphate. Three weeks after the cells reached a confluent state, the cells were washed with PBS, fixed with neutrally buffered formalin and stained with alizarin red S (Wako Pure Chemical Industries).

PDL cells [3] = experiment: Cell differentiation of PDL cells (alkaline phosphatase activity, Bessey-Lowry method); assay type: cell-based, human; conditions: peptide at various concentrations, 2% FBS medium; one week after confluent state; versus control (FIG. 4)
Text: PDL cells were isolated from a healthy premolar carefully extracted from a patient who visited a hospital to extract teeth for orthodontic treatment so that periodontal ligament should not be damaged as far as possible, and cultured. The extracted tooth was washed with sterilized physiological saline and phosphate-buffered saline (PBS, Nissui), and then periodontal ligament existing in ⅓ of the tooth root at the center was scraped off with a sharp knife. The pieces of periodontal ligament were transferred to a plastic plate and minced into small fragments using a round-blade knife. Tissue fragments were left standing in a plate having a diameter of 35 mm (FALCON) and cultured in Dulbecco's modified Eagle medium (DMEM, Nissui) containing antibiotics (100 U/ml of penicillin G, 100 μg/ml of streptomycin and 250 μg/ml of gentamicin) and 10% fetal bovine serum (FBS, EQUITECH-BIO) at 37° C. under 5% CO2. Then, cells released from the periodontal ligament tissue fragments were subcultured under the same conditions, and the 3rd to 5th generation cells were used for experiments. • (ii) Mouse-derived Osteoblasts
As an index of cell differentiation, alkaline phosphatase (ALP) activity of cells was determined. Cells were inoculated in a 24-well culture plate at a ratio of 5×10^3 cells/well, added with the peptide (a) at various concentrations and cultured in DMEM or αMEM containing 2% FBS. One week after the time point when the cells reached a confluent state, ALP activity was determined by the following enzymochemical method (Bessey-Lowry method, Bessey O A, Lowry O H and Brock M J, A method for the rapid determination of alkaline phosphatase with five cubic millimeter of serum, J. Biol. Chem., 164:321-329, 1946).
The cultured cells were washed with PBS and then disrupted in 10 mM Tris-HCl buffer (pH 7.4, 500 μl) for 40 seconds by using an ultrasonic homogenizer (Handy Sonic model UR-20P, Tomy Seiko) and stirred. Then, 25 μl of this sample liquid was added to 125 μl of ALP buffer (0.1 M carbonate buffer, pH 9.8, 6.7 mM p-nitrophenyl phosphate, 2 mM MgCl2) and incubated at 37° C. for 30 minutes. The reaction was terminated by addition of 125 μl of 0.2 N NaOH, and absorbance was measured at 405 nm by using a microplate reader (Model 550, Bio-Rad Laboratories).
Further, the ALP activity in DMEM containing 2% FBS and DMEM or αMEM containing 2% FBS added with peptide (c) at various concentrations was also similarly examined. The symbol “cont” in FIG. 4 indicates the results for the cells cultured in DMEM containing 2% FBS alone, “PN” indicates the results for the cells cultured in the medium added only with the peptide (a), and “PC” indicates the results for the cells cultured in the medium added only with the peptide (c). In FIG. 4, “pg” and “ng” represent “pg/ml” and “ng/ml,” respectively.
Further, in addition to the peptide (a) (derived from swine), the human-derived peptide (b) and BMP were similarly examined. The results of ALP activity measurement performed when the cells reached a confluent state are shown in FIG. 5, and the results of ALP activity measurement performed one week after the confluent state was attained are shown in FIG. 6. The symbol “cont” in the figures indicates the results for the cells cultured in DMEM containing 2% FBS alone, “B” indicates the results for the cells cultured in the medium added only with BMP2, “PN” indicates the results for the cells cultured in the medium added only with the peptide (a), and “HN” indicates the results for the cells cultured in the medium added only with the peptide (b) In the figures, the unit of numerical values shown after “B,” “PN” and “HN” is “ng/ml.”

NKAQQPQIKRDAWRF [(c)]
significantly increased: PDL cell number (cell growth promoting effect) [1] | calcification ability of the PDL cells (PDL cells [2]) | ALP activity of the PDL cells (PDL cells [3])
